This is an account of results in patent US4374040A, “Aminoalkylenephosphonic acids and salts thereof and their use in aqueous systems” (Buckman Laboratories, Inc., priority 1980, dated 1983).

Assay [1] can be described thus: Calcium Carbonate Antiprecipitation Tests. Conditions: 18 hours, 25° C. On the procedure:
To evaluate the effect of the aminoalkylenephosphonic acids of this invention on the precipitation of calcium carbonate, measured volumes of stock solution (prepared with demineralized water) of the phosphonic acids or their sodium salts were added to 100 ml. portions of a calcium chloride solution (0.2936 g. CaCl2.2H2 O per 100 ml. of solution). Then 100 ml. of a sodium bicarbonate solution (0.168 g. NaHCO3 per 100 ml. of solution) was added to each portion of calcium chloride solution. The test solutions were then agitated on a gyratory shaker table for 18 hours at a temperature of 25° C. At the end of this time, insoluble material was removed by filtration through a Millipore membrane filter, and the calcium ion concentration in the filtrate was determined with an atomic absorption spectrophotometer. […] The compounds tested were as follows:
A. Tetrahydro-N,N-bis(phosphonomethyl)-3-thiophenamine 1,1-dioxide (30 percent)
B. Thirty percent solution of the trisodium salt of A
D. Tetrahydro-N,N,N',N'-tetrakis(phosphonomethyl)-3,4-thiophenediamine 1,1-dioxide (30 percent)
E. 3-Hydrazinotetrahydro-N,N-bis(phosphonomethyl)thiophene 1,1-dioxide (30 percent)
F. Tetrahydro-N-(2-hydroxyethyl)-N-(phosphonomethyl)-3-thiophenamine 1,1-dioxide (30 percent)

Assay [2] is described as follows: Barium Sulfate Antiprecipitation Tests. Conditions: pH 7; for Percent inhibition of barium sulfate precipitation: 18 hours, 25° C. As to the method:
To evaluate the effect of the aminoalkylenephosphonic acids of this invention in inhibiting the precipitation of barium sulfate, the desire volumes of stock solutions of the phosphonic acids or their sodium salts (prepared with demineralized water) were added to 10-ml. aliquots of a barium chloride solution containing 5.35 g. BaCl2.H2 O per liter. The volume of each was made up to 175 ml. with demineralized water, and the pH was adjusted to 7.0 with dilute NaOH or HCl. A 25-ml. aliquot of a sodium sulfate solution (1.24 g. Na2 SO4 per liter) was then added to each. The test solutions were agitated on a gyratory shaker table for 18 hours at 25° C. At the end of this time, insoluble material was removed by filtration and the barium ion concentration was determined with an atomic absorption unit. The percent inhibition was calulated and the results are included in Table 3. Compound C was described in Example 15 and Compound H was described in Example 16. Compound I was an aqueous solution containing 22.5 percent of the trisodium salt of tetrahydro-N,N-bis(phosphonomethyl)-3-thiophenamine 1,1-dioxide and 7.5 percent of a poly(acrylic acid) having a molecular weight of about 4000. Compound J was an aqueous solution containing 7.5 percent of tetrahydro-N,N-bis(phosphononmethyl)-3-thiophenamine 1,1-dioxide and 22.5 percent of a poly(acrylic acid) having a molecular weight of about 4000. Since the percent inhibition results were lower that those obtainined in Examples 15 and 16, a well known scale inhibitor was included in this test for comparison.

The nature of assay [3]: Calcium Sulfate Antiprecipitation Tests. Conditions: pH 7, 18 hours, 50° C. As to the method: Inhibition of calcium sulfate precipitation by the aminoalkylenephosphonic acids of this invention was evaluated by adding the desired volumes of stock solutions of the phosphonic acids or their sodium salts (prepared with demineralized water) to 10-ml. aliquots of a calcium chloride solution containing 162.9 g. of CaCl2 per liter. The volume of each was made up to 175 ml. with demineralized water, and the pH was adjusted to 7.0 with dilute NaOH or HCl. A 25-ml. aliquot of a sodium sulfate solution (83.84 g. Na2 SO4 per liter) was then added to each. The test solutions were maintained for 18 hours at a temperature of 50° C. A portion of each was filtered while still hot to remove insoluble materials and the filtrate was analyzed for calcium by means of an atomic absorption instrument. The percent inhibition was calculated and the results are included in Table 2.

For the molecule `O=P(O)(O)CN(CP(=O)(O)O)C1CCS(=O)(=O)C1` (centres unmarked) [A, Tetrahydro-N,N-bis(phosphonomethyl)-3-thiophenamine 1,1-dioxide], the “percent inhibition of calcium carbonate precipitation” value in assay [1] (pH 8.5, 1 parts per million) is given as 83%; in assay [1] (pH 8.5, 3 parts per million) it was 84%; in assay [1] (pH 8.5, 5 parts per million) it was 78%; in assay [1] (pH 8.5, 10 parts per million), 85%; in assay [1] (pH 8.5, 25 parts per million) it was 73%; in assay [1] (pH 8.5, 50 parts per million), 71%.

For `O=P(O)(O)CN(CP(=O)(O)O)CP(=O)(O)O` [Compound K, nitrilotris(methylenephosphonic acid)], the “Percent inhibition of barium sulfate precipitation” value in assay [2] (5 parts per million) turned out to be 5%; in assay [2] (10 parts per million) it was 5%; in assay [2] (25 parts per million) it was 6%; in assay [2] (50 parts per million), 12%. The “effectiveness in inhibiting barium sulfate precipitation, compared with the combinations” value in assay [2] (in words) is “less than that of the combinations containing tetrahydro-N,N-bis(phosphonomethyl)-3-thiophenamine 1,1-dioxide”.

As for `O=P(O)(O)CN(CCO)C1CCS(=O)(=O)C1` (centres unmarked) [F, Tetrahydro-N-(2-hydroxyethyl)-N-(phosphonomethyl)-3-thiophenamine 1,1-dioxide], the “percent inhibition of calcium carbonate precipitation” value is listed as 27% in assay [1] (pH 8.5, 1 parts per million); 25% in assay [1] (pH 8.5, 3 parts per million); 27% in assay [1] (pH 8.5, 5 parts per million); 25% in assay [1] (pH 8.5, 10 parts per million); 38% in assay [1] (pH 8.5, 25 parts per million); 32% in assay [1] (pH 8.5, 50 parts per million). The “Percent inhibition of calcium sulfate precipitation” value in assay [3] (1 parts per million) was 41%; in assay [3] (3 parts per million), 38%; in assay [3] (5 parts per million) it was 39%; in assay [3] (10 parts per million), 43%; in assay [3] (25 parts per million), 61%; in assay [3] (50 parts per million), 88%.

Consider `O=P(O)(O)CN(CP(=O)(O)O)C1CS(=O)(=O)CC1N(CP(=O)(O)O)CP(=O)(O)O` (centres unmarked) [D, Tetrahydro-N,N,N',N'-tetrakis(phosphonomethyl)-3,4-thiophenediamine 1,1-dioxide], for which the “percent inhibition of calcium carbonate precipitation” value was determined as 78% in assay [1] (pH 8.5, 1 parts per million); 73% in assay [1] (pH 8.5, 3 parts per million); 73% in assay [1] (pH 8.5, 5 parts per million); 71% in assay [1] (pH 8.5, 10 parts per million); 70% in assay [1] (pH 8.5, 25 parts per million); 70% in assay [1] (pH 8.5, 50 parts per million).

On to `O=P(O)(O)CN(CP(=O)(O)O)C1CCS(=O)(=O)C1` (centres unmarked) [B], for which the “percent inhibition of calcium carbonate precipitation” value in assay [1] (pH 8.5, 1 parts per million) was found to be 92%; in assay [1] (pH 8.5, 3 parts per million) it was 87%; in assay [1] (pH 8.5, 5 parts per million) it was 92%; in assay [1] (pH 8.5, 10 parts per million), 91%; in assay [1] (pH 8.5, 25 parts per million), 93%; in assay [1] (pH 8.5, 50 parts per million), 94%. For the same molecule, the “percent inhibition of calcium carbonate precipitation” value is 9% in assay [1] (pH 9.0, 1 parts per million); 11% in assay [1] (pH 9.0, 3 parts per million); 89% in assay [1] (pH 9.0, 5 parts per million); 85% in assay [1] (pH 9.0, 10 parts per million); 16% in assay [1] (pH 9.0, 25 parts per million); 86% in assay [1] (pH 9.0, 50 parts per million). The “Percent inhibition of calcium sulfate precipitation” value in assay [3] (1 parts per million) amounted to 40%; in assay [3] (3 parts per million), 52%; in assay [3] (5 parts per million), 55%; in assay [3] (10 parts per million), 78%; in assay [3] (25 parts per million), 95%; in assay [3] (50 parts per million) it was 100%.

`O=P(O)(O)CN(CP(=O)(O)O)NC1CCS(=O)(=O)C1` (centres unmarked) [E, 3-Hydrazinotetrahydro-N,N-bis(phosphonomethyl)thiophene 1,1-dioxide]: the “percent inhibition of calcium carbonate precipitation” value in assay [1] (pH 8.5, 1 parts per million) was found to be 82%; in assay [1] (pH 8.5, 3 parts per million), 82%; in assay [1] (pH 8.5, 5 parts per million), 77%; in assay [1] (pH 8.5, 10 parts per million) it was 79%; in assay [1] (pH 8.5, 25 parts per million), 100%; in assay [1] (pH 8.5, 50 parts per million) it was 91%. The “percent inhibition of calcium carbonate precipitation” value was 78% in assay [1] (pH 9.0, 1 parts per million); 79% in assay [1] (pH 9.0, 3 parts per million); 79% in assay [1] (pH 9.0, 5 parts per million); 79% in assay [1] (pH 9.0, 10 parts per million); 70% in assay [1] (pH 9.0, 25 parts per million); 86% in assay [1] (pH 9.0, 50 parts per million). In addition, the “Percent inhibition of calcium sulfate precipitation” value in assay [3] (1 parts per million) is listed as 38%; in assay [3] (3 parts per million), 38%; in assay [3] (5 parts per million) it was 38%; in assay [3] (10 parts per million), 38%; in assay [3] (25 parts per million) it was 40%; in assay [3] (50 parts per million) it was 45%.
